Reference: EPA's ToxRefDB 2

Legend:
rat [1] = details: Sub-acute repeat dose toxicity; sprague dawley; Oral; Feed; dose end: 15 day; group: systemic; systemic / in life observation / body weight / body weight + systemic / in life observation / food consumption / food consumption
dog [2] = details: Sub-acute repeat dose toxicity; beagle; Oral; Gavage/Intubation; dose end: 30 day; group: systemic; systemic / in life observation / body weight / body weight gain + systemic / organ weight / liver / absolute + systemic / organ weight / …
primate = details: Sub-acute repeat dose toxicity; Oral; Gavage/Intubation; dose end: 6 day; group: systemic; systemic / in life observation / clinical signs / arrhythmia + systemic / in life observation / clinical signs / emesis + systemic / in life…
mouse [3] = details: Subchronic oral toxicity in rodents, Gavage/Intubation, dose end: 91 day, group: systemic, systemic / in life observation / body weight / body weight gain + systemic / organ weight / heart / absolute + systemic / organ weight / …
mouse [4] = details: Sub-acute repeat dose toxicity; Oral; Gavage/Intubation; dose end: 29 day; group: systemic; systemic / clinical chemistry / glucose / glucose + systemic / clinical chemistry / urea nitrogen / urea + systemic / hematology / leukocyte…
rat [5] = details: Sub-acute repeat dose toxicity, sprague dawley, Oral, Gavage/Intubation, dose end: 28 day, group: systemic
rat [6] = details: Prenatal developmental toxicity study, sprague dawley, Oral, Gavage/Intubation, dose end: 18 GD
rabbit [7] = details: Sub-acute repeat dose toxicity; Oral; Gavage/Intubation; dose end: 5 day; group: systemic; systemic / in life observation / body weight / body weight + systemic / in life observation / clinical signs / [other] + systemic / in life …
dog [8] = details: Chronic toxicity, beagle, Oral, Gavage/Intubation, dose end: 363 day, group: systemic
rat [9] = details: Chronic toxicity; sprague dawley; Oral; Gavage/Intubation; dose end: 181 day; group: systemic; systemic / in life observation / body weight / body weight gain + systemic / hematology / reticulocyte / reticulocyte + systemic / pathology…
rat [10] = details: Prenatal developmental toxicity study, sprague dawley, Oral, Gavage/Intubation, dose end: 15 GD
mouse [11] = details: Carcinogenicity, cd1, Oral, Feed, dose end: 78 week, group: systemic
rabbit [12] = details: Prenatal developmental toxicity study, himalayan, Dermal, Topical, dose end: 19 GD
rat [13] = details: Subchronic oral toxicity in rodents, other, Feed, dose end: 13 week
rat [14] = details: Multigenerational reproductive toxicity study, sprague dawley, Oral, Feed, dose end: 2 generation
mouse [15] = details: Subchronic oral toxicity in rodents, cd1, Feed, dose end: 13 week, group: systemic
dog [16] = details: Chronic toxicity; beagle; Oral; Capsule; dose end: 1 year; group: systemic; systemic / in life observation / body weight / body weight gain + systemic / in life observation / clinical signs / emesis + systemic / in …
dog [17] = details: Chronic toxicity; beagle; Oral; Capsule; dose end: 1 year; group: systemic; systemic / in life observation / body weight / body weight gain + systemic / in life observation / clinical signs / emesis + systemic / in …; remark: listed apart in the source
dog [18] = details: Subchronic oral toxicity in nonrodent, beagle, Capsule, dose end: 13 week, group: systemic
rat [19] = details: Combined chronic toxicity/carcinogenicity, sprague dawley, Oral, Feed, dose end: 104 week, group: systemic
[20] = systemic / in life observation / body weight / body weight gain + systemic / in life observation / food consumption / food consumption
[21] = systemic / in life observation / body weight / body weight gain + systemic / in life observation / food consumption / food consumption + …
[22] = group: developmental, developmental / developmental malformation / bone / full supernumerary
[23] = group: maternal, systemic / in life observation / body weight / body weight + systemic / in life observation / food consumption / food consumption
[24] = systemic / in life observation / body weight / body weight gain + systemic / organ weight / liver / absolute + systemic / pathology …
[25] = systemic / organ weight / kidney / absolute + systemic / clinical chemistry / alkaline phosphatase (alp/alk) / alkaline phosphatase (alp/alk…
[26] = group: developmental, developmental / developmental malformation / bone / incomplete ossification + systemic / in life observation / body weight / fetal weight
[27] = group: maternal, systemic / in life observation / body weight / body weight gain + systemic / in life observation / food consumption / food consumption
[28] = group: maternal, systemic / in life observation / body weight / body weight gain + systemic / in life observation / food consumption / food consumption + …
[29] = systemic / in life observation / body weight / body weight gain + systemic / in life observation / food consumption / food efficiency + …
[30] = systemic / organ weight / brain / relative to body weight
[31] = group: developmental, developmental / developmental malformation / bone / incomplete ossification
[32] = group: maternal, systemic / in life observation / clinical signs / erythema + systemic / in life observation / clinical signs / scabbing + systemic / …
[33] = group: cholinesterase, cholinesterase / cholinesterase / cholinesterase / cholinesterase (che)
[34] = group: systemic, systemic / clinical chemistry / urea nitrogen / urea nitrogen
[35] = group: offspring, systemic / in life observation / body weight / offspring (pup) weight
[36] = group: parental, systemic / in life observation / body weight / body weight + systemic / in life observation / body weight / body weight gain + systemic / in…
[37] = systemic / clinical chemistry / glucose / glucose
[38] = systemic / in life observation / body weight / body weight gain + systemic / in life observation / clinical signs / emesis + systemic / in …
[39] = systemic / in life observation / clinical signs / soft stools + systemic / in life observation / food consumption / food consumption
[40] = systemic / clinical chemistry / alanine aminotransferase (alt/sgpt) / alanine aminotransferase (alt/sgpt) + systemic / in life observation…

## CN1N=C2CCN(C(=O)[C@@H](COCc3ccccc3)NC(=O)C(C)(C)N)C[C@@]2(Cc2ccccc2)C1=O [Capromorelin]
Rat [1]
  LEL: 1200 mg/kg/day
  LOAEL: > 1200 mg/kg/day
  NOAEL: ≥ 1200 mg/kg/day
Dog [2]
  LEL: 40 mg/kg/day
  LOAEL: > 40 mg/kg/day
  NEL: 7 mg/kg/day
  NOAEL: ≥ 40 mg/kg/day
primate
  LEL: 1 mg/kg/day
  LOAEL: > 3 mg/kg/day
  NEL: < 1 mg/kg/day
  NOAEL: ≥ 3 mg/kg/day
Mouse [3]
  LEL: 30 mg/kg/day
  LOAEL: > 300 mg/kg/day
  NEL: < 30 mg/kg/day
  NOAEL: ≥ 300 mg/kg/day
Mouse [4]
  LEL: 3 mg/kg/day
  LOAEL: > 300 mg/kg/day
  NEL: < 3 mg/kg/day
  NOAEL: ≥ 300 mg/kg/day
Rat [5]; [20]
  LEL: 1 mg/kg/day
  NEL: < 1 mg/kg/day
Rat [5]; [21]
  LOAEL: > 75 mg/kg/day
  NOAEL: ≥ 75 mg/kg/day
Rat [6]; [22]
  LOAEL: > 75 mg/kg/day
  NEL: < 1 mg/kg/day
  NOAEL: ≥ 75 mg/kg/day
Rat [6]; [23]
  LOAEL: > 75 mg/kg/day
  NOAEL: ≥ 75 mg/kg/day
Rabbit [7]
  LOAEL: > 150 mg/kg/day
  NEL: 50 mg/kg/day
  NOAEL: ≥ 150 mg/kg/day
Dog [8]; [24]
  LEL: 7 mg/kg/day
  NEL: < 7 mg/kg/day
Dog [8]; [25]
  LOAEL: > 40 mg/kg/day
  NOAEL: ≥ 40 mg/kg/day
Rat [9]
  LEL: 1 mg/kg/day
  LOAEL: > 75 mg/kg/day
  NEL: < 1 mg/kg/day
  NOAEL: ≥ 75 mg/kg/day

## CC(C)(C)c1ccc(CSc2cnn(C(C)(C)C)c(=O)c2Cl)cc1 [Pyridaben]
Rat [10]; [26]
  LEL: 30 mg/kg/day
  LOAEL: 30 mg/kg/day
  NEL: 13 mg/kg/day
  NOAEL: 13 mg/kg/day
Rat [10]; [27]
  LEL: 13 mg/kg/day
  LOAEL: 13 mg/kg/day
Rat [10]; [28]
  NEL: 5.7 mg/kg/day
  NOAEL: 5.7 mg/kg/day
Mouse [11]; [29]
  LOAEL: 8.88 mg/kg/day
  NOAEL: 2.78 mg/kg/day
Mouse [11]; [30]
  LEL: 0.26 mg/kg/day
  NEL: < 0.26 mg/kg/day
Rabbit [12]; [31]
  LEL: 450 mg/kg/day
  LOAEL: 450 mg/kg/day
  NEL: 170 mg/kg/day
  NOAEL: 170 mg/kg/day
Rabbit [12]; [32]
  LEL: 70 mg/kg/day
  LOAEL: 70 mg/kg/day
  NEL: < 70 mg/kg/day
  NOAEL: < 70 mg/kg/day
Rat [13]; [33]
  LEL: 27.7 mg/kg/day
  LOAEL: > 27.7 mg/kg/day
  NEL: 12.8 mg/kg/day
  NOAEL: ≥ 27.7 mg/kg/day
Rat [13]; [34]
  LEL: 2.3 mg/kg/day
  NEL: < 2.3 mg/kg/day
Rat [13]; group: systemic, systemic / in life observation / body weight / body weight gain + systemic / in life observation / food consumption / food efficiency
  LOAEL: 5.53 mg/kg/day
Rat [13]; group: systemic, systemic / in life observation / body weight / body weight gain + systemic / in life observation / food consumption / food efficiency + …
  NOAEL: 2.64 mg/kg/day
Rat [14]; [35]
  LEL: 6.31 mg/kg/day
  LOAEL: > 6.31 mg/kg/day
  NEL: 2.2 mg/kg/day
  NOAEL: ≥ 6.31 mg/kg/day
Rat [14]; [36]
  LOAEL: 6.31 mg/kg/day
  NOAEL: 2.2 mg/kg/day
Rat [14]; group: parental, systemic / organ weight / ovary / absolute
  LEL: 2.41 mg/kg/day
Rat [14]; group: parental, systemic / organ weight / ovary / absolute + systemic / in life observation / body weight / body weight + systemic / in life observation / …
  NEL: 0.94 mg/kg/day
Mouse [15]; [37]
  LEL: 4.07 mg/kg/day
  NEL: < 4.07 mg/kg/day
Mouse [15]; systemic / in life observation / body weight / body weight gain
  LOAEL: 13 mg/kg/day
Mouse [15]; systemic / in life observation / body weight / body weight gain + systemic / clinical chemistry / alkaline phosphatase (alp/alk) / alkaline …
  NOAEL: 4.07 mg/kg/day
Dog [16]
  LEL: 0.5 mg/kg/day
  LOAEL: 0.5 mg/kg/day
  NEL: < 0.5 mg/kg/day
  NOAEL: < 0.5 mg/kg/day
Dog [17]
  LEL: 1 mg/kg/day
  LOAEL: 1 mg/kg/day
  NEL: < 1 mg/kg/day
  NOAEL: < 1 mg/kg/day
Dog [18]; [38]
  LOAEL: 4 mg/kg/day
  NOAEL: 1 mg/kg/day
Dog [18]; [39]
  LEL: 0.5 mg/kg/day
  NEL: < 0.5 mg/kg/day
Rat [19]; [40]
  LOAEL: 5 mg/kg/day
  NEL: 0.4 mg/kg/day
Rat [19]; systemic / urinalysis / volume / volume
  LEL: 1.13 mg/kg/day
